The values that follow come from patent publication US7504412B2, “Imidazopyridine derivatives” (Banyu Pharmaceuticals, Co., Ltd., priority 2003, dated 2009).

Structures are written as SMILES. Where a name gives a salt, the structure may show the parent alone.

In the first experiment the test system is MCH-induced feeding behavior. The experiment in a line: Antagonism test to MCH-induced feeding behavior. The following applies: male SD rats satiated with high fat diet; 10 or 30 mg/kg oral, one hour before MCH 5 μg/head into third ventricle. The format is in vivo, rat. The procedure:
Ketamine-xylazine anesthetized (74 and 11 mg/kg single intraperitoneal administration) male SD rats (9-12 weeks old) were inserted with chronic guide cannule (26 gauge) into their third ventricle as fixed at a set cerebral location with dental resin. The position of the front end of the guide cannula was set to be 2.2 mm behind the bregma on median line and at a depth of 8 mm from the cranial surface. After two weeks' recovery term, the rats were fed with high fat diet for about 4 hours to satiation. Thereafter a needle (33 gauge) which was connected to a microsyringe was inserted into the guide cannula and through which melanin concentrating hormone (MCH, 5 μg/1 μL/head, as dissolved in artificial liquor cerebrospinalis) was administered into each rat's third ventricle. The compound of Example 17 (10 or 30 mg/kg) as suspended in 0.5% aqueous methylcellulose solution was orally administered to the rats an hour before the MCH administration. The rats were successively fed with high fat diet, and their feed intake during the two hours following the MCH administration was measured.
In this test, the feed intake in the case where MCH and artificial liquor cerebrospinalis (aCSF) alone was administered in place of the compound of the present invention was used as the reference.
Regarding `Cc1c(C2CC2)nc2ccc(NC(=O)c3ccc(-c4ccccn4)cc3)cn12` [Example 17, N-(2-cyclopropyl-3-methylimidazo[1,2-a]pyridin-6-yl)-4-(2-pyridyl)benzamide hydrochloride], the “feed intake during the two hours following MCH administration” value is on record as “dose-dependently inhibited increase in the amount of feed intake induced by the MCH”.

In the next experiment the target is T1, human MCH-1R (Homo sapiens, UniProt Q99705).
T1 construct: expressed in transfected cells; host or cells: CHO-K1 (American Type Culture Collection), membrane samples
T1 sequence (Q99705 whole entry): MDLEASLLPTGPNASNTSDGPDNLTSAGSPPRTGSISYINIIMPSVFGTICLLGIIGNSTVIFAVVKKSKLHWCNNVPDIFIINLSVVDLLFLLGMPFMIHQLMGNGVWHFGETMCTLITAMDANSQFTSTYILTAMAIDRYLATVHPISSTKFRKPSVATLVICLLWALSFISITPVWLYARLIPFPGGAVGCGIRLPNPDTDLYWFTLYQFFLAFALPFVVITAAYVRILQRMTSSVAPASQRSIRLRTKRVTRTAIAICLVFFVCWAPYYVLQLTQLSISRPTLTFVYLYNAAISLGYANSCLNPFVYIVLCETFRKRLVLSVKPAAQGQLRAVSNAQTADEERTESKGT
Put plainly: MCH binding inhibition test. The note with it: membrane samples from MCH-1R expression CHO-K1 cells, 50 pM [125I]MCH, 25° C., one hour; read-out: IC50 (50% inhibition concentration to specific [125I]MCH binding). How it is done: A human MCH-1R encoding cDNA sequence [FEBS Letters, 398, 253 (1996); Biochimica et Biophisica Acta, 1401, 216 (1998)] was cloned to plasmid vector pEF/mic/cyto (Invitrogen Corporation). The obtained expression vector was transfected to a host cell CHO-K1 (American Type Culture Collection) using lipofectamine plus reagent (Life Technology Inc.) to provide MCH-1R expression cells.
Membrane samples prepared from the MCH-1R expression cells were incubated with each test compound and 50 pM of [^125I]MCH (NEN Co.), in an assay buffer (50 mM Tris buffer comprising 10 mM magnesium chloride, 2 mM ethylenediamine tetraacetate, 0.01% bacitracin and 0.2% bovine serum albumin; pH 7.4) at 25° C. for an hour, followed by filtration through Glass Filter GF/C (Wattman Co.). After washing the glass filter with 50 mM Tris buffer (pH7.4) comprising 10 mM magnesium chloride, 2 mM ethylenediamine tetraacetate and 0.04% Tween-20, radio activity on the glass filter was measured. Non-specific binding was measured in the presence of 1 μM human MCH and 50% inhibition concentration (IC50 value) of each test compound to specific [^125I] MCH binding was determined.
Consider `Cc1c(C2CC2)nc2ccc(NC(=O)c3ccc(-c4ccccn4)cc3)cn12` [Example 17, N-(2-cyclopropyl-3-methylimidazo[1,2-a]pyridin-6-yl)-4-(2-pyridyl)benzamide hydrochloride], for which the IC50 came to 3.3 nM.

As to `O=C(Nc1ccc2nc(C3CC3)c(CO)n2c1)c1ccc(-c2ccc(C(F)(F)F)cc2)cc1` [Example 36, N-[2-cyclopropyl-3-(hydroxymethyl)imidazo[1,2-a]pyridin-6-yl]-4′-(trifluoromethyl)[1,1′-biphenyl]-4-carboxamide], the IC50 was 10.5 nM.

For the compound `Cc1c(C(C)(C)O)nc2ccc(NC(=O)c3ccc(-c4ccc(C(F)(F)F)cn4)cc3)cn12` [Example 32, N-[2-(1-hydroxy-1-methylethyl)-3-methylimidazo[1,2-a]-pyridin-6-yl]-4-[5-(trifluoromethyl)-2-pyridyl]benzamide], the IC50 turned out to be 9.5 nM.

Turning to `Cc1c(C2CC2)nc2ccc(NC(=O)CCc3ccc(C(F)(F)F)cc3)cn12` [Example 18, N-(2-cyclopropyl-3-methylimidazo[1,2-a]pyridin-6-yl)-3-[4-(trifluoromethyl)phenyl]propanamide], the IC50 is 4.3 nM.

As for `Cc1c(C2CC2)nc2ccc(NC(=O)c3ccc(-c4ccc(F)cc4)cn3)cn12` [Example 14, N-(2-cyclopropyl-3-methylimidazo[1,2-a]pyridin-6-yl)-5-(4-fluorophenyl)-2-pyridinecarboxamide hydrochloride], the IC50 came to 2 nM.

Turning to `CC(C)c1cn2cc(NC(=O)c3ccc(-c4ccc(F)cc4)cc3)ccc2n1` [Example 2, 4′-Fluoro-N-(2-isopropylimidazo[1,2-a]pyridin-6-yl)[1,1′-biphenyl]-4-carboxamide], the IC50 came out at 3.1 nM.
